Test systems include OVCAR-4 ovarian; HT29 colon; OVCAR-8 ovarian; K-562 leukemia; NCI-H522 lung; COLO 205 colon; NCI/ADR-RES ovarian; MALME-3M melanoma; SK-OV-3 ovarian; HL-60(TB) leukemia.
Assay in all cases: growth of human tumour cells (NCI), 48 h

Several values for one entry are separate records, joined by “and”; a condition that tells them apart may be missing. Equal values may be shown once.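 Following 48 hours of exposure in 96-well plates, responses at five concentrations were used to interpolate endpoints linearly. GI50 is the concentration that inhibits growth by half. TGI: concentration producing complete growth inhibition.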 Some results are limits rather than exact numbers.

The values below come from PubChem BioAssay (NCI).

Turning to `Cn1cc(-c2ccc(-c3ccc(C4=NC5(CC5)C(=O)N4C[C@@H]4CCN(C(=O)C5CC5)C4)cc3)cc2)cn1`, the GI50 in the test on OVCAR-4 ovarian was 5.74 µM; with HT29 colon, 12.5 µM; in the test with OVCAR-8 ovarian, 19.4 µM; with K-562 leukemia, 7.11 µM; with NCI-H522 lung, 12.3 µM; in the test with COLO 205 colon, 15.6 µM. Further, the GI50 in the test with NCI/ADR-RES ovarian is 10.4 µM; with MALME-3M melanoma, 18.6 µM; in the test on SK-OV-3 ovarian, 29.9 µM; in the test on HL-60(TB) leukemia, 0.0615 µM. For the same compound, the TGI was greater than 100 µM in the test with OVCAR-4 ovarian; greater than 100 µM in the test on HT29 colon; greater than 100 µM in the test on OVCAR-8 ovarian; greater than 100 µM in the test on K-562 leukemia; 40.6 µM with NCI-H522 lung; 93.5 µM in the test on COLO 205 colon. In addition, the TGI in the test with NCI/ADR-RES ovarian was greater than 100 µM; in the test on MALME-3M melanoma it was 40.9 µM; in the test on SK-OV-3 ovarian, greater than 100 µM; in the test on HL-60(TB) leukemia it was 25.9 µM.

As for `O=c1c(-c2ccccc2)coc2cc(OC/C(=N/O)c3ccccc3)ccc12`, the GI50 was 14.9 µM in the test on OVCAR-4 ovarian; 14.7 µM with HT29 colon; 17.3 µM in the test with OVCAR-8 ovarian; 11.3 µM in the test on K-562 leukemia; 7.54 µM in the test with NCI-H522 lung; 26.5 µM in the test on COLO 205 colon. For the same compound, the GI50 was 17.8 µM with NCI/ADR-RES ovarian, 10.4 µM with MALME-3M melanoma, 25.9 µM with SK-OV-3 ovarian and 21.3 µM in the test with HL-60(TB) leukemia. Besides, the TGI is 47.2 µM in the test with OVCAR-4 ovarian; 53.2 µM in the test on HT29 colon; 50.8 µM in the test on OVCAR-8 ovarian; greater than 100 µM in the test with K-562 leukemia; 64.4 µM in the test with NCI-H522 lung; 72.6 µM with COLO 205 colon. The TGI amounted to 60 µM with NCI/ADR-RES ovarian, 28.3 µM in the test on MALME-3M melanoma, 88.5 µM in the test with SK-OV-3 ovarian and 95.9 µM with HL-60(TB) leukemia.

With `C[N+]1=C(/C=C\C=C\c2ccccc2)C(C)(C)c2ccccc21`, the GI50 is 2.69 µM with OVCAR-4 ovarian; 2.6 µM with HT29 colon; 2.11 µM in the test with OVCAR-8 ovarian; 0.442 µM in the test with K-562 leukemia; 0.863 µM with NCI-H522 lung; 0.686 µM in the test with COLO 205 colon. Further, the GI50 with NCI/ADR-RES ovarian is 9.45 µM; in the test on MALME-3M melanoma, 1.87 µM; with SK-OV-3 ovarian it was 11.3 µM; in the test on HL-60(TB) leukemia, 0.258 µM. The TGI in the test on OVCAR-4 ovarian amounted to 13.8 µM; in the test with HT29 colon, 9.09 µM; in the test with OVCAR-8 ovarian, 10.5 µM; in the test on K-562 leukemia, 7.28 µM; in the test with NCI-H522 lung, 2.9 µM; with COLO 205 colon it was 2.26 µM. Also, the TGI in the test on NCI/ADR-RES ovarian is 33.9 µM; in the test on MALME-3M melanoma, 4.37 µM; in the test on SK-OV-3 ovarian it was 23.9 µM; in the test on HL-60(TB) leukemia it was 1.62 µM.

Regarding `COc1ccc2c(c1)C(=O)c1c-2n(CCCI)c(=O)c2cc([N+](=O)[O-])ccc12`, the GI50 was 1.03 µM and 3.72 µM in the test on OVCAR-4 ovarian; 0.16 µM and 0.437 µM in the test with HT29 colon; 0.266 µM and 0.338 µM in the test on OVCAR-8 ovarian; 0.0596 µM and 0.19 µM with K-562 leukemia; 1.77 µM and 1.12 µM with COLO 205 colon; 0.14 µM and 0.122 µM in the test on NCI/ADR-RES ovarian. Moreover, the GI50 with MALME-3M melanoma is 1.36 µM and 2.85 µM; with SK-OV-3 ovarian, 0.23 µM and 0.48 µM; in the test with HL-60(TB) leukemia it was 0.167 µM and 0.0526 µM. Moreover, the TGI is 11.9 µM and 84.3 µM in the test with OVCAR-4 ovarian; 50 µM and > 100 µM in the test on OVCAR-8 ovarian; 50 µM and > 100 µM in the test on K-562 leukemia; 50 µM and 98.8 µM with NCI-H522 lung; 21.6 µM and 55.3 µM in the test on COLO 205 colon; 18.4 µM and 43.3 µM in the test on MALME-3M melanoma. The TGI in the test on HL-60(TB) leukemia was 2.26 µM and 0.822 µM.

Regarding `NCCCNCCCCNC(=O)C(O)NC(=O)CCCCCCN=C(N)N` (centres undefined), the GI50 in the test with OVCAR-4 ovarian is 2490 µM; in the test on HT29 colon, greater than 3580 µM; with OVCAR-8 ovarian it was 2440 µM; with K-562 leukemia it was 805 µM; with NCI-H522 lung, 1350 µM; in the test with COLO 205 colon, 1580 µM. For the same compound, the GI50 was 2190 µM with NCI/ADR-RES ovarian, 1920 µM in the test on MALME-3M melanoma, greater than 5000 µM with SK-OV-3 ovarian and 2500 µM in the test with HL-60(TB) leukemia. The TGI is 619 µM and > 2810 µM with OVCAR-4 ovarian; greater than 5000 µM with HT29 colon; 750 µM and > 5000 µM in the test with OVCAR-8 ovarian; 750 µM and > 3610 µM in the test on K-562 leukemia; 636 µM and 2860 µM with NCI-H522 lung; 750 µM and > 5000 µM with COLO 205 colon. For the same compound, the TGI was greater than 5000 µM in the test with NCI/ADR-RES ovarian; 628 µM and 3050 µM with MALME-3M melanoma; greater than 5000 µM with SK-OV-3 ovarian; greater than 4090 µM in the test with HL-60(TB) leukemia.

For `Cc1cc(N2CCOCC2)cc2[nH]c(-c3c(NC[C@@H](O)c4cccc(Cl)c4)cc[nH]c3=O)nc12`, the GI50 in the test on OVCAR-4 ovarian is 4.21 µM; in the test on HT29 colon it was 0.0672 µM; in the test with OVCAR-8 ovarian it was 3.23 µM; in the test on K-562 leukemia, 2.94 µM; in the test with NCI-H522 lung it was 1.78 µM; in the test on COLO 205 colon, 0.118 µM. The GI50 was 2.83 µM with NCI/ADR-RES ovarian, 1.68 µM with MALME-3M melanoma, 4.56 µM in the test on SK-OV-3 ovarian and 0.0567 µM in the test with HL-60(TB) leukemia. For the same compound, the TGI was 40.4 µM in the test on OVCAR-4 ovarian; 1.81 µM in the test with HT29 colon; 14.7 µM with OVCAR-8 ovarian; 13 µM in the test with K-562 leukemia; 6.18 µM in the test on NCI-H522 lung; 0.642 µM with COLO 205 colon. The TGI in the test with NCI/ADR-RES ovarian was found to be 12.3 µM; with MALME-3M melanoma it was 14.8 µM; with SK-OV-3 ovarian, 25 µM; in the test on HL-60(TB) leukemia, 2.45 µM.

In the case of `Cc1ncc(C(=O)Nc2ccc(CN3CCN(C)CC3)c(C(F)(F)F)c2)cc1C#Cc1cnc(N)cc1C#N`, the GI50 was 0.144 µM with OVCAR-4 ovarian; 0.0481 µM with HT29 colon; 1.3 µM in the test with OVCAR-8 ovarian; 0.00167 µM in the test on K-562 leukemia; 0.405 µM with NCI-H522 lung; 0.0538 µM in the test with COLO 205 colon. Moreover, the GI50 in the test on NCI/ADR-RES ovarian is 2.12 µM; in the test with MALME-3M melanoma, 0.0196 µM; in the test on SK-OV-3 ovarian, 0.401 µM; in the test with HL-60(TB) leukemia it was 0.481 µM. For the same compound, the TGI in the test with OVCAR-4 ovarian stood at 2.64 µM; in the test on HT29 colon, 2.38 µM; in the test with OVCAR-8 ovarian, 5.35 µM; with K-562 leukemia it was 3.21 µM; in the test on NCI-H522 lung, 3.24 µM; in the test on COLO 205 colon, 2.32 µM. Besides, the TGI with NCI/ADR-RES ovarian came out at 5.24 µM; with MALME-3M melanoma, 0.125 µM; in the test on SK-OV-3 ovarian it was 1.8 µM; with HL-60(TB) leukemia, 2.85 µM.

In the case of `O=C(OC[C@H]1O[C@H](OC(=O)c2cc(O)c(O)c(OC(=O)c3cc(O)c(O)c(O)c3)c2)[C@H](OC(=O)c2cc(O)c(O)c(OC(=O)c3cc(O)c(O)c(O)c3)c2)[C@@H](OC(=O)c2cc(O)c(O)c(OC(=O)c3cc(O)c(O)c(O)c3)c2)[C@@H]1OC(=O)c1cc(O)c(O)c(OC(=O)c2cc(O)c(O)c(O)c2)c1)c1cc(O)c(O)c(OC(=O)c2cc(O)c(O)c(O)c2)c1`, the GI50 in the test with OVCAR-4 ovarian is 4.67 µM; in the test with HT29 colon, 3.86 µM; with OVCAR-8 ovarian, 1.91 µM; with K-562 leukemia, 9.63 µM; in the test on NCI-H522 lung it was 1.96 µM; with COLO 205 colon, 8.17 µM. Also, the GI50 in the test with NCI/ADR-RES ovarian is 1.3 µM; in the test with MALME-3M melanoma, 7.42 µM; with SK-OV-3 ovarian it was 2.25 µM; in the test on HL-60(TB) leukemia, 7.53 µM. In addition, the TGI in the test on OVCAR-4 ovarian is 18.3 µM; in the test with HT29 colon, 9.22 µM; with OVCAR-8 ovarian it was greater than 25 µM; with K-562 leukemia, greater than 25 µM; in the test with NCI-H522 lung it was 7.68 µM; in the test with COLO 205 colon it was greater than 25 µM. The TGI was 18.9 µM in the test on NCI/ADR-RES ovarian, greater than 25 µM with MALME-3M melanoma, greater than 25 µM in the test with SK-OV-3 ovarian and 23.5 µM with HL-60(TB) leukemia.

As for `Cc1cnc(C(=O)Nc2nc3ccc(S(=O)(=O)Nc4ccc(C5(C(F)(F)F)CC5)cc4)cc3[nH]2)cn1`, the GI50 in the test on OVCAR-4 ovarian is 2.07 µM; with HT29 colon it was 0.364 µM; in the test on OVCAR-8 ovarian it was 0.722 µM; in the test with K-562 leukemia, 0.216 µM; in the test on NCI-H522 lung, 0.251 µM; with COLO 205 colon, 0.414 µM. In addition, the GI50 in the test with NCI/ADR-RES ovarian was 0.26 µM; in the test with MALME-3M melanoma, 0.345 µM; with SK-OV-3 ovarian, 1.57 µM; with HL-60(TB) leukemia it was 0.296 µM. Moreover, the TGI is 9.26 µM with OVCAR-4 ovarian; 10.9 µM in the test with HT29 colon; 23.4 µM with OVCAR-8 ovarian; 12.7 µM in the test with K-562 leukemia; 11.2 µM in the test with NCI-H522 lung; 9.35 µM with COLO 205 colon. Besides, the TGI was 1.69 µM with NCI/ADR-RES ovarian, 8.65 µM in the test with MALME-3M melanoma, 22.7 µM in the test on SK-OV-3 ovarian and 0.924 µM in the test with HL-60(TB) leukemia.

For `CCCCCCCc1cc2c3c(nc4ccccc42)C(=O)c2cccnc2-c3n1`, the GI50 with OVCAR-4 ovarian was 5.74 µM; in the test on HT29 colon it was 5.99 µM; in the test on OVCAR-8 ovarian, 5.41 µM; in the test with K-562 leukemia, 1.29 µM; in the test with NCI-H522 lung, 1.14 µM; with COLO 205 colon, 5.05 µM. Further, the GI50 in the test with NCI/ADR-RES ovarian was 4.33 µM; in the test on MALME-3M melanoma, 5.07 µM; with SK-OV-3 ovarian, 15.3 µM; with HL-60(TB) leukemia it was 1.42 µM. The TGI in the test with OVCAR-4 ovarian was 13.8 µM; with HT29 colon it was 27.7 µM; with OVCAR-8 ovarian it was 16.6 µM; in the test on K-562 leukemia, greater than 24.2 µM; in the test with NCI-H522 lung, 3.07 µM; in the test on COLO 205 colon, 9.59 µM. The TGI came to 12.6 µM in the test on NCI/ADR-RES ovarian, 10.9 µM in the test on MALME-3M melanoma and 28.6 µM in the test with SK-OV-3 ovarian.

Turning to `COc1cc2c(cc1OC)C13CCN4CC5CCOC6CC(=O)N2C1C6C5CC43` (centres undefined), the TGI in the test on OVCAR-4 ovarian, in the test with HT29 colon, with OVCAR-8 ovarian, in the test with NCI-H522 lung, in the test with COLO 205 colon and in the test with NCI/ADR-RES ovarian was greater than 100 µM throughout. Also, the TGI with MALME-3M melanoma, with SK-OV-3 ovarian and in the test on HL-60(TB) leukemia was greater than 100 µM each time.
